The values below come from patent US20070004766A1, “Methods for relaxation of smooth muscle contractions using Trospium” (priority 2005, published 2007).

In test [1] the test system is bladder smooth muscle strips. Briefly: Antimuscarinic activity on bladder smooth muscle strips (carbachol-induced contractions). The note with it: Cavia porcellus, read-out: KB, inhibition of carbachol-induced contractions. It counts as cell-based, guinea pigs.
Test [2] has as its target T1, human recombinant muscarinic receptor M-3 (Homo sapiens, UniProt P20309).
T1 construct: expressed in transfected cells; host or cells: Sf9 insect cells (membranes)
Briefly: biochemical. It counts as binding.

T1 sequence (P20309 whole entry): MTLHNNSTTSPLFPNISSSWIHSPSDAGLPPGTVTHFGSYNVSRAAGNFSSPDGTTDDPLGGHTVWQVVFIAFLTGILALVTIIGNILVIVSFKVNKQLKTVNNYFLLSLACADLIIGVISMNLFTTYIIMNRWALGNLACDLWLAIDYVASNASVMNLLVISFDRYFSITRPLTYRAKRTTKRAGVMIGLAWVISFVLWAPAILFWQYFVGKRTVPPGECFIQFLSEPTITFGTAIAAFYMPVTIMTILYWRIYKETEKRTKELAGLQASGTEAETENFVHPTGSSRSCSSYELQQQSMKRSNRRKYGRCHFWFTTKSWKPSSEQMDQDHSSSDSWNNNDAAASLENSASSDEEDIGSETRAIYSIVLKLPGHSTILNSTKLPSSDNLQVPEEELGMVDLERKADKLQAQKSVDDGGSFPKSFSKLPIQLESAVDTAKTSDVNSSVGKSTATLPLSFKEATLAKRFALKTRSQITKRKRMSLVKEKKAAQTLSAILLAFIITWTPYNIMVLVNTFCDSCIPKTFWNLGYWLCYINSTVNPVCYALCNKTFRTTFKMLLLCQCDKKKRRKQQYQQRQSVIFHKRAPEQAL

In the case of `Cc1ccc(O)c([C@H](CCN(C(C)C)C(C)C)c2ccccc2)c1` [Tolterodine], in test [1], the Kb lay within 1.5 to 5.5 nM.

The term Ki denotes a dissociation constant, usually derived from enzyme kinetics or from competition with a known ligand. For the compound `O=C(OC1CC2CCC(C1)[N+]21CCCC1)C(O)(c1ccccc1)c1ccccc1` (stereo not drawn) [Trospium, 3α-hydroxy-spiro[1αH,5αH-nortropane-8,1′-pyrrolidinium]chloride benzilate], in test [2], the Ki was 0.501 nM. Further, the Kb in test [1] is 1.5 to 5.5 nM.
